The values below are quoted from earlier work in PMC10620911 (ACS Omega, 2023).

The conditions of this data set: structure-dependent.

SMILES strings stand for the structures.

Turning to `Cc1noc(-c2ccc(-c3ccc(C4(C(=O)O)CC4)cc3)cc2)c1NC(=O)O[C@H](C)c1ccccc1` [BMS-986020], the hepatobiliary toxicity result is recorded as “hepatobiliary toxicity”.
